Some test systems named below: DMS-273; KM-20L2; M19-MEL; DLD-1; RXF 631; SNB-78; DMS-114; XF498; HOP-18.
What all share (assay): inhibition of tumour cell growth, NCI panel, 48 h

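Growth conditions: 96-well plates. Treatment: test compound, 48 hours, 5 concentrations. Analysis: linear interpolation between bracketing concentrations; unreached endpoints set to highest concentration. GI50: concentration for 50% inhibition of growth.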 Activity calls are given as the source filed them. No stated cut-off is given here; in the data, active = GI50 up to about 1.1 µM and inactive = higher. Some results are limits rather than exact numbers.

`COC(=O)CC1(O)C(=O)OCc2c1cc1n(c2=O)Cc2c-1nc1ccccc1c2OC` (configuration not stated): the GI50 with DMS-273 was 0.042 µM (active); in the test on KM-20L2, 1.95 µM (inactive); with M19-MEL, 1.19 µM (inactive); with DLD-1, 27.4 µM (inactive); in the test with RXF 631, 1.63 µM (inactive); in the test on SNB-78, 26 µM (inactive). Further, the GI50 in the test with DMS-114 was 0.164 µM (active); in the test on XF498 it was 13.3 µM (inactive); with HOP-18 it was 0.522 µM (active).
For the compound `CSc1nsc(-c2ccccc2)[s+]1.[O-][Cl+3]([O-])([O-])[O-]`, the GI50 with DMS-273, in the test on KM-20L2, with M19-MEL, with DLD-1, in the test with RXF 631 and in the test on SNB-78 was > 100 µM (inactive) throughout. The GI50 in the test on HOP-18 is > 100 µM (inactive).
For `Cc1cn2cc(-c3ccncc3)nc2s1`, the GI50 is > 100 µM (inactive) in the test on DMS-273; > 100 µM (inactive) in the test on KM-20L2; > 86.7 µM (inactive) with M19-MEL; > 100 µM (inactive) in the test with DLD-1; > 100 µM (inactive) in the test on RXF 631; > 100 µM (inactive) with SNB-78. Besides, the GI50 is > 91.4 µM (inactive) with DMS-114, > 100 µM (inactive) in the test on XF498 and > 100 µM (inactive) in the test on HOP-18.
Turning to `COC(=O)C(Cc1cc(OC)c(OC)c(OC)c1)C(=O)OC`, the GI50 with DMS-273, with KM-20L2, in the test with M19-MEL, with DLD-1, in the test with RXF 631 and in the test with DMS-114 was > 320 µM (inactive) throughout. Further, the GI50 with XF498 was > 320 µM (inactive).
As to `c1ccc(P(=Nc2ccccc2N=P(c2ccccc2)(c2ccccc2)c2ccccc2)(c2ccccc2)c2ccccc2)cc1`, the GI50 in the test on DMS-273 is 0.309 µM (active); with KM-20L2, 1.38 µM (inactive); in the test with M19-MEL it was 0.818 µM (active); in the test on DLD-1 it was 1.47 µM (inactive); with RXF 631, 1.34 µM (inactive); in the test with SNB-78, 0.489 µM (active). The results for the GI50 in the test on DMS-114, in the test with XF498 and with HOP-18 were 0.405 µM (active), 0.208 µM (active) and 0.172 µM (active), respectively.
As for `CC(C)(CN1CCOCC1)C(=O)/C=C/c1ccc(/C=C/C(=O)C(C)(C)CN2CCOCC2)cc1`, the GI50 is 0.457 µM (active) in the test with DMS-273; 1.36 µM (inactive) in the test on KM-20L2; 0.338 µM (active) in the test on DLD-1; 1.36 µM (inactive) with RXF 631; 1.21 µM (inactive) with SNB-78; 0.757 µM (active) in the test with DMS-114. Further, the GI50 in the test on XF498 is 1.42 µM (inactive).
Turning to `COc1ccc2nc3cc(Cl)ccc3c(Nc3ccccc3-c3ccccc3Nc3c4ccc(Cl)cc4nc4ccc(OC)cc34)c2c1`, the GI50 with DMS-273 was 20.4 µM (inactive); in the test with KM-20L2, 19.9 µM (inactive); with M19-MEL, > 34.7 µM (inactive); in the test with RXF 631 it was > 34.8 µM (inactive); in the test with SNB-78, > 100 µM (inactive); in the test on XF498, > 39.4 µM (inactive). For the same compound, in the test on HOP-18, the GI50 was > 100 µM (inactive).
Regarding `CCOc1ccc(NC(=O)C(=O)CC(=O)c2sc(NNC(C)=O)nc2C)cc1`, the GI50 in the test with DMS-273, with KM-20L2, in the test with M19-MEL, with DLD-1, with RXF 631 and in the test on SNB-78 was > 100 µM (inactive) each time. Besides, the GI50 with XF498 was > 100 µM (inactive).

Values taken from ChEMBL document CHEMBL1201862, “PubChem BioAssay data set” (2004).
